Among the test systems are A498 renal; HCT-15 colon; IGROV1 ovarian; KM12 colon; PC-3 prostate; SF-268 CNS; SF-539 CNS; SK-OV-3 ovarian; SNB-19 CNS; K-562 leukemia.
Holding throughout (assay): inhibition of tumour cell growth, NCI panel, 48 h

Values joined by “and” are separate entries in the source; they are usually repeats but may differ in a detail not shown here. Equal entries are not always repeated.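 Cells were grown in 96-well plates and exposed to each compound for 48 hours at five concentrations; endpoints were interpolated linearly between bracketing concentrations, or set to the highest concentration if not reached. Here, GI50 denotes the concentration required for 50% inhibition of growth. The concentration for full growth arrest is given as TGI.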

Consider `Cc1ccc(S(=O)(=O)c2c(COC(=O)c3cccc(C)c3)c(-c3ccccc3)nn2C)cc1`, for which the GI50 was 29.5 µM with A498 renal; greater than 100 µM with HCT-15 colon; greater than 100 µM with IGROV1 ovarian; greater than 100 µM with KM12 colon; greater than 100 µM in the assay with PC-3 prostate; greater than 100 µM with SF-268 CNS. The GI50 in the assay with SF-539 CNS, in the assay on SK-OV-3 ovarian and in the assay with SNB-19 CNS was greater than 100 µM throughout. Besides, the TGI in the assay on A498 renal, with HCT-15 colon, in the assay with IGROV1 ovarian, in the assay with KM12 colon, with PC-3 prostate and in the assay on SF-268 CNS was greater than 100 µM each time. Moreover, the TGI in the assay on SF-539 CNS, with SK-OV-3 ovarian and in the assay on SNB-19 CNS was greater than 100 µM each time.
For the molecule `COc1cc(OC)c2nc(C)c3c(c2c1)SCC3`, the TGI in the assay with A498 renal was 36.2 µM; with HCT-15 colon it was greater than 100 µM; with IGROV1 ovarian it was 34.7 µM; in the assay on K-562 leukemia, greater than 100 µM; with KM12 colon, greater than 100 µM; with PC-3 prostate, 53.1 µM. Also, the TGI was determined as 44.6 µM with SF-268 CNS, 35.8 µM in the assay with SF-539 CNS, 48.9 µM in the assay on SK-OV-3 ovarian and 34.8 µM in the assay with SNB-19 CNS.
For `CC1(C)CC(O)C(C)(C)[C@@H](O)C1` (some centres not stated), the TGI in the assay on HCT-15 colon, in the assay on IGROV1 ovarian, in the assay with K-562 leukemia, with KM12 colon, in the assay on PC-3 prostate and in the assay with SF-268 CNS was greater than 100 µM each time. Further, the TGI in the assay with SF-539 CNS, in the assay on SK-OV-3 ovarian and with SNB-19 CNS was greater than 100 µM in each case.
Take `CC1CCC/C1=C(/I)C(=O)c1ccccc1` (configuration not stated): the TGI in the assay with HCT-15 colon, in the assay with IGROV1 ovarian, in the assay on K-562 leukemia, with KM12 colon, in the assay on PC-3 prostate and with SF-268 CNS was greater than 100 µM each time. Besides, the TGI with SF-539 CNS, in the assay with SK-OV-3 ovarian and with SNB-19 CNS was greater than 100 µM each time.
Turning to `COc1ccc2c(c1)NC1=C(C(=O)OC1)C2c1cc(OC)c2c(c1)OCO2` (configuration not stated), the GI50 in the assay on A498 renal was less than 0.0146 µM; in the assay on HCT-15 colon, 0.0319 µM; in the assay with IGROV1 ovarian, 0.0337 µM; in the assay on PC-3 prostate, 0.028 µM; in the assay with SF-268 CNS, less than 0.021 µM; in the assay on SF-539 CNS, less than 0.0178 µM. In addition, the GI50 is 0.0204 µM in the assay with SK-OV-3 ovarian and 0.0519 µM in the assay on SNB-19 CNS. For the same molecule, the TGI with A498 renal is 0.0437 µM; in the assay on HCT-15 colon, greater than 100 µM; with IGROV1 ovarian, greater than 100 µM; in the assay on K-562 leukemia, greater than 100 µM; with PC-3 prostate, greater than 100 µM; in the assay with SF-268 CNS, greater than 100 µM. Besides, the TGI in the assay with SF-539 CNS was greater than 83.2 µM; in the assay with SNB-19 CNS, greater than 100 µM.
For the molecule `O=C1NC(Nc2ccccc2)=NC(C(F)(F)F)(C(F)(F)F)N1`, the TGI in the assay with HCT-15 colon, with IGROV1 ovarian, in the assay with K-562 leukemia, with KM12 colon, in the assay on PC-3 prostate and in the assay on SF-268 CNS was greater than 100 µM throughout. Further, the TGI in the assay on SF-539 CNS and in the assay with SK-OV-3 ovarian was greater than 100 µM each time.
Turning to `CC1=NN(C(=O)c2ccccc2O)C(=O)/C1=C/c1ccc(O)cc1`, the TGI in the assay with HCT-15 colon is greater than 100 µM; with IGROV1 ovarian it was 5.03 µM; in the assay with K-562 leukemia, greater than 100 µM; in the assay with KM12 colon it was greater than 100 µM; in the assay with PC-3 prostate, greater than 100 µM; with SF-268 CNS it was greater than 100 µM. Also, the TGI was 6.73 µM with SF-539 CNS, greater than 100 µM with SK-OV-3 ovarian and greater than 100 µM in the assay on SNB-19 CNS.
For the molecule `CC[C@@]1(O)C(=O)OCc2c1cc1n(c2=O)Cc2cc3cc4c(cc3nc2-1)OCO4`, the GI50 in the assay with A498 renal was 0.00137 µM; in the assay on IGROV1 ovarian, less than 0.0341 µM; with K-562 leukemia it was less than 0.0114 µM; in the assay with KM12 colon, 0.0353 µM and < 0.0188 µM; in the assay on SK-OV-3 ovarian it was less than 0.0324 µM. The TGI in the assay with A498 renal was 0.0685 µM and 0.114 µM; in the assay on HCT-15 colon it was greater than 58.9 µM; with IGROV1 ovarian, 0.187 µM; with K-562 leukemia, greater than 100 µM; with KM12 colon it was 0.369 µM; with PC-3 prostate, greater than 100 µM. The same molecule returned a TGI in the assay with SF-539 CNS of 0.0013 µM.
Consider `COc1cc(OC)c(C/C=C/c2ccccc2)cc1O`, for which the TGI in the assay on A498 renal is 28.8 µM; in the assay on HCT-15 colon, 30.1 µM; in the assay with IGROV1 ovarian it was 29.9 µM; in the assay with K-562 leukemia it was 33 µM; in the assay on KM12 colon it was 31.5 µM; in the assay with PC-3 prostate, 35.6 µM. In addition, the TGI was determined as 34.4 µM in the assay with SF-268 CNS, 29.7 µM in the assay with SF-539 CNS and 29.3 µM in the assay on SNB-19 CNS.
Consider `Cc1c(C(=O)Nc2ccccc2)sc2ncn(Cc3cccc(Cl)c3)c(=O)c12`, for which the GI50 in the assay with HCT-15 colon is 13.2 µM; with IGROV1 ovarian, 15.6 µM; in the assay with K-562 leukemia, 4.87 µM; in the assay on KM12 colon it was 99 µM; with PC-3 prostate, 16.5 µM; in the assay on SF-268 CNS it was 73.2 µM. Further, the figures for the GI50 in the assay with SF-539 CNS, in the assay on SK-OV-3 ovarian and in the assay on SNB-19 CNS were 22.4 µM, greater than 100 µM and 30.1 µM, respectively. Besides, the TGI was greater than 100 µM with HCT-15 colon; greater than 100 µM in the assay on IGROV1 ovarian; greater than 100 µM in the assay with K-562 leukemia; greater than 100 µM with KM12 colon; 49.6 µM in the assay with PC-3 prostate; greater than 100 µM in the assay with SF-268 CNS. For the same molecule, the TGI with SF-539 CNS, in the assay with SK-OV-3 ovarian and in the assay on SNB-19 CNS was greater than 100 µM throughout.
Consider `COc1ccc2c(c1)C(=O)c1ccc(OC)cc1C2=S`, for which the TGI in the assay with A498 renal, with HCT-15 colon, in the assay on IGROV1 ovarian, in the assay with K-562 leukemia, in the assay on KM12 colon and in the assay on SF-268 CNS was greater than 100 µM throughout. For the same molecule, the TGI with SF-539 CNS, in the assay on SK-OV-3 ovarian and with SNB-19 CNS was greater than 100 µM throughout.

Values taken from PubChem BioAssay (NCI).
